Experimental data as given in US7459450B2, “Neuropeptide receptor modulators” (Schering Corporation, priority 2004, dated 2008).

molecular target: T1, Human NPY Y1 receptors (Homo sapiens, UniProt P25929); assay: NPY Receptor Binding Assay; conditions: not given
T1 construct: expressed in transfected cells; host or cells: CHO cells (membrane protein)
T1 sequence (P25929 1-384): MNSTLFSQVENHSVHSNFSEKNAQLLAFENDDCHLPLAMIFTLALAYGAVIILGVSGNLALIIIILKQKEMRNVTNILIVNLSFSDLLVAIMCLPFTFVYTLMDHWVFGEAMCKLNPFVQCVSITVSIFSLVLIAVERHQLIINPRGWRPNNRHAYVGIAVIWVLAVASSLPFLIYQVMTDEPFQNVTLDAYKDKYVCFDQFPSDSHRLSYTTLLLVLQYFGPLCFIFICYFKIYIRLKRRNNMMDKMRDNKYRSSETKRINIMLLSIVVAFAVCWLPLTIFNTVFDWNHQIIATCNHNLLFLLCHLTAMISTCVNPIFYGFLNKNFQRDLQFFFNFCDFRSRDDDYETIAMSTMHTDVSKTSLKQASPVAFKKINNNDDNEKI

**Q.** With CC(C)C[C@@H]1N/C(=N/c2ccc(CCNc3nc4cc(Cl)c(Cl)cc4s3)cc2)SC1=O [Example 362] as the compound, how does the Ki read?
**A.** > 10 µM

**Q.** For CC(C)[C@@H]1N/C(=N/c2ccc(CCNc3nc4cc(Cl)c(Cl)cc4s3)cc2)SC1=O [Example 363], which Ki is on record?
**A.** > 10 µM

**Q.** COc1cccc2sc(NCCc3ccc(/N=C4/N[C@@H](CC(C)C)C(=O)S4)cc3)nc12 [Example 364] was tested. Which Ki did it give?
**A.** > 10 µM

**Q.** Which Ki does the source give for COc1cccc2sc(NCCc3ccc(/N=C4/N[C@@H](C(C)C)C(=O)S4)cc3)nc12 [Example 365] here?
**A.** > 10 µM

**Q.** For COc1cccc2sc(NCCc3ccc(/N=C4\SC(=O)[C@@H]5CCCN45)cc3)nc12 [Example 366], which Ki is on record?
**A.** > 10 µM

**Q.** How did the Ki turn out when COc1cccc2sc(NCCc3ccc(/N=C4/N[C@@H](CC(=O)O)C(=O)S4)cc3)nc12 [Example 367] was run?
**A.** > 10 µM

**Q.** Which Ki does the source give for COc1cccc2sc(NCCc3ccc(/N=C4/N[C@@H](C)C(=O)S4)cc3)nc12 [Example 368] here?
**A.** > 10 µM

**Q.** For Cc1cccc2sc(NCCc3ccc(/N=C4/N[C@@H](Cc5ccccc5)C(=O)S4)cc3)nc12 [Example 369], which Ki is on record?
**A.** > 10 µM

**Q.** How did the Ki turn out when Cc1cccc2sc(NCCc3ccc(/N=C4/N[C@@H](CC(C)C)C(=O)S4)cc3)nc12 [Example 370] was run?
**A.** > 10 µM

**Q.** With Cc1cccc2sc(NCCc3ccc(/N=C4/N[C@@H](C(C)C)C(=O)S4)cc3)nc12 [Example 371] as the compound, how does the Ki read?
**A.** > 10 µM

**Q.** For Cc1cccc2sc(NCCc3ccc(/N=C4/N[C@@H](CC(=O)O)C(=O)S4)cc3)nc12 [Example 372], which Ki is on record?
**A.** > 10 µM

**Q.** Which Ki does the source give for O=C1S/C(=N\c2ccc(CCNc3nc4ccc(F)cc4s3)cc2)N[C@H]1Cc1ccccc1 [Example 373] here?
**A.** > 10 µM

**Q.** CC(C)[C@@H]1N/C(=N/c2ccc(CCNc3nc4ccc(F)cc4s3)cc2)SC1=O [Example 374] was tested. Which Ki did it give?
**A.** > 10 µM

**Q.** For O=C1S/C(=N\c2ccc(CCNc3nc4ccc(F)cc4s3)cc2)N2CCC[C@@H]12 [Example 375], which Ki is on record?
**A.** > 10 µM

**Q.** For O=C1CN/C(=N\c2cccc(CCNc3nc4ccccc4s3)c2)S1 [Example 376], which Ki is on record?
**A.** > 10 µM

**Q.** O=C1CN/C(=N/c2ccc(CCNc3nc4ccccc4s3)cc2)S1 [Example 377] was tested. Which Ki did it give?
**A.** > 10 µM

**Q.** How did the Ki turn out when Cc1ccc2nc(NCCc3ccc(/N=C4/N[C@@H](C(C)C)C(=O)S4)cc3)sc2c1 [Example 378] was run?
**A.** > 10 µM

**Q.** How did the Ki turn out when Cc1ccc2nc(NCCc3ccc(/N=C4\SC(=O)[C@@H]5CCCN45)cc3)sc2c1 [Example 379] was run?
**A.** > 10 µM

**Q.** How did the Ki turn out when Cc1ccc2nc(NCCc3ccc(/N=C4/N[C@@H](CC(=O)O)C(=O)S4)cc3)sc2c1 [Example 380] was run?
**A.** > 10 µM

**Q.** With Cc1ccc2nc(NCCc3ccc(/N=C4/N[C@@H](C)C(=O)S4)cc3)sc2c1 [Example 381] as the compound, how does the Ki read?
**A.** > 10 µM

**Q.** For O=C1S/C(=N\c2ccc(CCNc3nc4ccc(Cl)cc4s3)cc2)N[C@H]1Cc1ccccc1 [Example 382], which Ki is on record?
**A.** > 10 µM

**Q.** For CC(C)C[C@@H]1N/C(=N/c2ccc(CCNc3nc4ccc(Cl)cc4s3)cc2)SC1=O [Example 383], which Ki is on record?
**A.** > 10 µM

**Q.** Which Ki does the source give for CC(C)[C@@H]1N/C(=N/c2ccc(CCNc3nc4ccc(Cl)cc4s3)cc2)SC1=O [Example 384] here?
**A.** > 10 µM

**Q.** Which Ki does the source give for O=C1SC(=Nc2ccc(CCNc3nc4ccc(Cl)cc4s3)cc2)N2CCCC12 (centres unmarked) [Example 385] here?
**A.** > 10 µM

**Q.** C[C@@H]1N/C(=N/c2ccc(CCNc3nc4ccc(Cl)cc4s3)cc2)SC1=O [Example 386] was tested. Which Ki did it give?
**A.** > 10 µM

**Q.** For CS(=O)(=O)c1ccc2nc(NCCc3ccc(/N=C4/N[C@@H](Cc5ccccc5)C(=O)S4)cc3)sc2c1 [Example 387], which Ki is on record?
**A.** > 10 µM

**Q.** How did the Ki turn out when CSCC[C@@H]1N/C(=N/c2ccc(CCNc3nc4ccc(S(C)(=O)=O)cc4s3)cc2)SC1=O [Example 388] was run?
**A.** > 10 µM

**Q.** CC(C)C[C@@H]1N/C(=N/c2ccc(CCNc3nc4ccc(S(C)(=O)=O)cc4s3)cc2)SC1=O [Example 389] was tested. Which Ki did it give?
**A.** > 10 µM

**Q.** O=C1S/C(=N\c2ccc(CCNc3nc4cc(Cl)c(Cl)cc4s3)cc2)N2CCC[C@@H]12 [Example 390] was tested. Which Ki did it give?
**A.** > 10 µM

**Q.** With O=C1CN/C(=N/c2ccc(CCNc3nc4cc(Cl)c(Cl)cc4s3)cc2)S1 [Example 391] as the compound, how does the Ki read?
**A.** > 10 µM

**Q.** Which Ki does the source give for O=C(O)C[C@@H]1N/C(=N/c2ccc(CCNc3nc4cc(Cl)c(Cl)cc4s3)cc2)SC1=O [Example 392] here?
**A.** > 10 µM

**Q.** With C[C@@H]1N/C(=N/c2ccc(CCNc3nc4cc(Cl)c(Cl)cc4s3)cc2)SC1=O [Example 393] as the compound, how does the Ki read?
**A.** > 10 µM

**Q.** How did the Ki turn out when O=C1S/C(=N\c2ccc(CCNc3nc4ccccc4s3)cc2)N[C@H]1Cc1ccccc1 [Example 394] was run?
**A.** > 10 µM

**Q.** For CSCC[C@@H]1N/C(=N/c2ccc(CCNc3nc4ccccc4s3)cc2)SC1=O [Example 395], which Ki is on record?
**A.** > 10 µM

**Q.** How did the Ki turn out when CC(C)C[C@@H]1N/C(=N/c2ccc(CCNc3nc4ccccc4s3)cc2)SC1=O [Example 396] was run?
**A.** > 10 µM

**Q.** For CC(C)[C@@H]1N/C(=N/c2ccc(CCNc3nc4ccccc4s3)cc2)SC1=O [Example 397], which Ki is on record?
**A.** > 10 µM

**Q.** With O=C1S/C(=N\c2ccc(CCNc3nc4ccccc4s3)cc2)N2CCC[C@@H]12 [Example 398] as the compound, how does the Ki read?
**A.** > 10 µM

**Q.** With O=C(O)C[C@@H]1N/C(=N/c2ccc(CCNc3nc4ccccc4s3)cc2)SC1=O [Example 399] as the compound, how does the Ki read?
**A.** > 10 µM

**Q.** How did the Ki turn out when C[C@@H]1N/C(=N/c2ccc(CCNc3nc4ccccc4s3)cc2)SC1=O [Example 400] was run?
**A.** > 10 µM

**Q.** How did the Ki turn out when COc1cccc2sc(NCCc3ccc(/N=C4/N[C@@H](Cc5ccccc5)C(=O)S4)cc3)nc12 [Example 401] was run?
**A.** > 10 µM

**Q.** With O=C(O)C[C@@H]1N/C(=N/c2ccc(CCNc3nc4ccc(F)cc4s3)cc2)SC1=O [Example 402] as the compound, how does the Ki read?
**A.** > 10 µM

**Q.** C[C@@H]1N/C(=N/c2ccc(CCNc3nc4ccc(F)cc4s3)cc2)SC1=O [Example 403] was tested. Which Ki did it give?
**A.** > 10 µM

**Q.** How did the Ki turn out when CC(C)C1NC(=Nc2ccccc2CCNc2nc3ccccc3s2)SC1=O (centres unmarked) [Example 404] was run?
**A.** > 10 µM

**Q.** Which Ki does the source give for O=C1S/C(=N/c2ccccc2CCNc2nc3ccccc3s2)N2CCC[C@@H]12 [Example 405] here?
**A.** > 10 µM

**Q.** O=C1S/C(=N/c2cccc(CCNc3nc4ccccc4s3)c2)N[C@H]1Cc1ccccc1 [Example 406] was tested. Which Ki did it give?
**A.** > 10 µM

**Q.** How did the Ki turn out when CC(C)[C@@H]1N/C(=N\c2cccc(CCNc3nc4ccccc4s3)c2)SC1=O [Example 407] was run?
**A.** > 10 µM

**Q.** With O=C1S/C(=N/c2cccc(CCNc3nc4ccccc4s3)c2)N2CCC[C@@H]12 [Example 408] as the compound, how does the Ki read?
**A.** > 10 µM

**Q.** For O=C(O)C[C@@H]1N/C(=N\c2cccc(CCNc3nc4ccccc4s3)c2)SC1=O [Example 409], which Ki is on record?
**A.** > 10 µM

**Q.** Which Ki does the source give for O=C1S/C(=N/c2ccccc2CCNc2nc3ccccc3s2)N[C@H]1Cc1ccccc1 [Example 410] here?
**A.** > 10 µM

**Q.** For CC(C)C[C@@H]1N/C(=N\c2ccccc2CCNc2nc3ccccc3s2)SC1=O [Example 411], which Ki is on record?
**A.** > 10 µM

**Q.** With O=C1CN/C(=N\c2ccccc2CCNc2nc3ccccc3s2)S1 [Example 412] as the compound, how does the Ki read?
**A.** > 10 µM

**Q.** For O=C(O)C[C@@H]1N/C(=N\c2ccccc2CCNc2nc3ccccc3s2)SC1=O [Example 413], which Ki is on record?
**A.** > 10 µM

**Q.** How did the Ki turn out when CSCC[C@@H]1N/C(=N/c2ccc(CCNc3nc4ccc([N+](=O)[O-])cc4s3)cc2)SC1=O [Example 414] was run?
**A.** > 10 µM

same assay, conditions: Procedure G compounds, rated A/B/C

**Q.** Which Ki does the source give for Cc1csc(Nc2ccc(CCNc3nc4ccccc4s3)cc2)n1 [Example 415] here?
**A.** > 10 µM

**Q.** Which Ki does the source give for c1ccc2sc(NCCc3ccc(Nc4nccs4)cc3)nc2c1 [Example 416] here?
**A.** > 10 µM

**Q.** Cc1ccc(-c2csc(Nc3ccc(CCNc4nc5ccccc5s4)cc3)n2)cc1 [Example 417] was tested. Which Ki did it give?
**A.** > 10 µM

**Q.** With CNC(=O)c1sc(Nc2ccc(CCNc3nc4ccccc4s3)cc2)nc1C [Example 418] as the compound, how does the Ki read?
**A.** > 10 µM

**Q.** For c1ccc(-c2ccc(-c3csc(Nc4ccc(CCNc5nc6ccccc6s5)cc4)n3)cc2)cc1 [Example 419], which Ki is on record?
**A.** > 10 µM

**Q.** Fc1ccc(-c2csc(Nc3ccc(CCNc4nc5ccccc5s4)cc3)n2)cc1 [Example 420] was tested. Which Ki did it give?
**A.** > 10 µM
